These results are taken from US11771738B2 (Zoetis Services LLC, priority 2018, dated 2023).

Common to all, as to format: cell-based
In assay [1] the test system is microfilariae of Dirofilaria immitis. The assay can be described thus: Dirofilaria immitis, Microfilaria (DiMf) In Vitro Assay. To be noted: Dirofilaria immitis, 72 h, read-out: DiMf MED, Minimum Effective Dose, D. immitis microfilariae motility, in vitro.
In assay [2] the test system is D. immitis L4 larvae. The assay can be described thus: Dirofilaria immitis, L4 Stage (DiL4) In Vitro Assay. The settings on record: for minimal effective concentration: Dirofilaria immitis, 72 h, read-out: DiL4 MED, Minimum Effective Dose, D. immitis L4 larvae motility, in vitro; for DiMf/DiL4: larval stage selectivity, ratio of DiMf MED to DiL4 MED.
In assay [3] the test system is third stage larvae of Haemonchus contortus. The assay can be described thus: Haemonchus contortus, Larvae Stage 3 (HcL3) In Vitro Assay. The settings on record: Haemonchus contortus, 96 h.
Where [4] appears, read: read-out: HcL3 MED, Minimum Effective Dose, H. contortus third stage larvae, approximately 96 hours.
The mark [5] stands for this setting: read-out: HcL3 MED, approximately 96 hours incubation, multiple-resistant field isolate.
The mark [6] stands for this setting: read-out: HcL3 MED, Haemonchus contortus third stage larvae in vitro, class mark appended to the Ex # in Table 3.

The structures appear in SMILES notation. Where two headings read alike, the source gives them in different places. Where only a bound is given, the exact number is not on record here.

For `CCOc1ncccc1Cc1ccc(C[C@H]2OC(=O)[C@H](CC(C)C)N(C)C(=O)[C@@H](C)OC(=O)[C@H](CC(C)C)N(C)C(=O)[C@@H](Cc3ccc(Cc4cccnc4OCC)cc3)OC(=O)[C@H](CC(C)C)N(C)C(=O)[C@@H](C)OC(=O)[C@H](CC(C)C)N(C)C2=O)cc1` [Example 3-165, (3S,6R,9S,12R,15S,18R,21S,24R)-6,18-bis(4-((2-ethoxypyridin-3-yl)methyl)benzyl)-3,9,15,21-tetraisobutyl-4,10,12,16,22,24-hexamethyl-1,7,13,19-tetraoxa-4,10,16,22-tetraazacyclotetracosan-2,5,8,11,14,17,20,23-octaone], the minimal effective concentration in assay [1] is 0.2 µM; in assay [2], 0.001 µM; in assay [3] (setting [4]), more than 100 µM. The DiMf/DiL4 in assay [2] was 200.
On to `Cc1noc(C)c1Cc1ccc(C[C@H]2OC(=O)[C@H](CC(C)C)N(C)C(=O)[C@@H](C)OC(=O)[C@H](CC(C)C)N(C)C(=O)[C@@H](Cc3ccccc3)OC(=O)[C@H](CC(C)C)N(C)C(=O)[C@@H](C)OC(=O)[C@H](CC(C)C)N(C)C2=O)cc1` [Example 4-109, (3S,6R,9S,12R,15S,18R,21S,24R)-6-benzyl-18-(4-((3,5-dimethylisoxazol-4-yl)methyl)benzyl)-3,9,15,21-tetraisobutyl-4,10,12,16,22,24-hexamethyl-1,7,13,19-tetraoxa-4,10,16,22-tetraazacyclotetracosan-2,5,8,11,14,17,20,23-octaone], for which the minimal effective concentration was 0.001 µM in assay [1]; 0.0004 µM in assay [2]; less than 1 µM in assay [3] (read-out: HcL3 MED (symbol after Ex#), approximately 96 hours incubation, multiple-resistant field isolate); 1 µM in assay [3] (setting [4]); not above 1 µM in assay [3] (setting [5]). The DiMf/DiL4 in assay [2] is 2.5.
Turning to `Cc1csc(Cc2ccc(C[C@H]3OC(=O)[C@H](CC(C)C)N(C)C(=O)[C@@H](C)OC(=O)[C@H](CC(C)C)N(C)C(=O)[C@@H](Cc4ccc(Cc5cc(C)cs5)cc4)OC(=O)[C@H](CC(C)C)N(C)C(=O)[C@@H](C)OC(=O)[C@H](CC(C)C)N(C)C3=O)cc2)c1` [Example 3-124, (3S,6R,9S,12R,15S,18R,21S,24R)-3,9,15,21-tetraisobutyl-4,6,10,16,18,22-hexamethyl-12,24-bis(4-((4-methylthiophen-2-yl)methyl)benzyl)-1,7,13,19-tetraoxa-4,10,16,22-tetraazacyclotetracosan-2,5,8,11,14,17,20,23-octaone], the minimal effective concentration in assay [1] was 0.1 µM; in assay [2], 0.001 µM; in assay [3] (setting [6]) it was less than 1 µM; in assay [3] (setting [4]), 0.3 µM; in assay [3] (setting [5]), not above 1 µM. In addition, the DiMf/DiL4 in assay [2] is given as 100.
As to `COc1ncccc1Cc1ccc(C[C@H]2OC(=O)[C@H](CC(C)C)N(C)C(=O)[C@@H](C)OC(=O)[C@H](CC(C)C)N(C)C(=O)[C@@H](Cc3ccc(Cc4cccnc4OC)cc3)OC(=O)[C@H](CC(C)C)N(C)C(=O)[C@@H](C)OC(=O)[C@H](CC(C)C)N(C)C2=O)cc1` [Example 3-31, (3S,6R,9S,12R,15S,18R,21S,24R)-3,9,15,21-tetraisobutyl-6,18-bis(4-((2-methoxypyridin-3-yl)methyl)benzyl)-4,10,12,16,22,24-hexamethyl-1,7,13,19-tetraoxa-4,10,16,22-tetraazacyclotetracosan-2,5,8,11,14,17,20,23-octaone], the minimal effective concentration was 0.005 µM in assay [1], 0.0002 µM in assay [2], 1 to 3.3 µM in assay [3] (setting [6]) and 2.4 µM in assay [3] (setting [4]). Besides, the DiMf/DiL4 in assay [2] stood at 25.
Regarding `Cc1ccc(Cc2ccc(C[C@H]3OC(=O)[C@H](CC(C)C)N(C)C(=O)[C@@H](C)OC(=O)[C@H](CC(C)C)N(C)C(=O)[C@@H](Cc4ccc(Cc5ccc(C)nc5C)cc4)OC(=O)[C@H](CC(C)C)N(C)C(=O)[C@@H](C)OC(=O)[C@H](CC(C)C)N(C)C3=O)cc2)c(C)n1` [Example 3-240, (3S,6R,9S,12R,15S,18R,21S,24R)-6,18-bis(4-((2,6-dimethylpyridin-3-yl)methyl)benzyl)-3,9,15,21-tetraisobutyl-4,10,12,16,22,24-hexamethyl-1,7,13,19-tetraoxa-4,10,16,22-tetraazacyclotetracosan-2,5,8,11,14,17,20,23-octaone], the minimal effective concentration in assay [1] stood at 0.02 µM; in assay [2], 0.001 µM; in assay [3] (setting [4]) it was 5.7 µM. In assay [2], the DiMf/DiL4 turned out to be 20.
For `CC(C)C[C@H]1C(=O)O[C@H](Cc2ccc([C@@H](c3ccc(OC(F)(F)F)cc3)N3CCOCC3)cc2)C(=O)N(C)[C@@H](CC(C)C)C(=O)O[C@H](C)C(=O)N(C)[C@@H](CC(C)C)C(=O)O[C@H](Cc2ccccc2)C(=O)N(C)[C@@H](CC(C)C)C(=O)O[C@@H](C)C(=O)N1C` [Example 2-42, (3S,6R,9S,12R,15S,18R,21S,24S)-6-benzyl-3,9,15,21-tetraisobutyl-4,10,12,16,22,24-hexamethyl-18-[[4-[(S)-morpholino-[4-(trifluoromethoxy)phenyl]-methyl]phenyl]methyl]-1,7,13,19-tetraoxa-4,10,16,22-tetrazacyclotetracosane-2,5,8,11,14,17,20,23-octaone], the minimal effective concentration is 0.3 µM in assay [1], 0.0003 µM in assay [2] and more than 10 µM in assay [3] (setting [4]). The DiMf/DiL4 in assay [2] came out at 1000.
For `CCn1nccc1Cc1ccc(C[C@H]2OC(=O)[C@H](CC(C)C)N(C)C(=O)[C@@H](C)OC(=O)[C@H](CC(C)C)N(C)C(=O)[C@@H](Cc3ccc(Cc4ccnn4CC)cc3)OC(=O)[C@H](CC(C)C)N(C)C(=O)[C@@H](C)OC(=O)[C@H](CC(C)C)N(C)C2=O)cc1` [Example 3-253, (3S,6R,9S,12R,15S,18R,21S,24R)-6,18-bis(4-((1-ethyl-1H-pyrazol-5-yl)methyl)benzyl)-3,9,15,21-tetraisobutyl-4,10,12,16,22,24-hexamethyl-1,7,13,19-tetraoxa-4,10,16,22-tetraazacyclotetracosan-2,5,8,11,14,17,20,23-octaone], the minimal effective concentration is 0.0003 µM in assay [1]; 0.001 µM in assay [2]; less than 1 µM in assay [3] (setting [6]); 1 µM in assay [3] (setting [4]); not above 1 µM in assay [3] (setting [5]). Also, in assay [2], the DiMf/DiL4 was determined as 0.3.
For the molecule `CC(C)C[C@H]1C(=O)O[C@H](Cc2ccc(Cc3cc(C4CC4)no3)cc2)C(=O)N(C)[C@@H](CC(C)C)C(=O)O[C@H](C)C(=O)N(C)[C@@H](CC(C)C)C(=O)O[C@H](Cc2ccc(Cc3cc(C4CC4)no3)cc2)C(=O)N(C)[C@@H](CC(C)C)C(=O)O[C@H](C)C(=O)N1C` [Example 3-284, (3S,6R,9S,12R,15S,18R,21S,24R)-6,18-bis(4-((3-cyclopropylisoxazol-5-yl)methyl)benzyl)-3,9,15,21-tetraisobutyl-4,10,12,16,22,24-hexamethyl-1,7,13,19-tetraoxa-4,10,16,22-tetraazacyclotetracosan-2,5,8,11,14,17,20,23-octaone], the minimal effective concentration was 0.1 µM in assay [1], 0.0005 µM in assay [2] and more than 10 µM in assay [3] (setting [4]). Besides, the DiMf/DiL4 in assay [2] stood at 200.
Consider `CC(C)C[C@H]1C(=O)O[C@H](Cc2ccc(Cc3cnc(N4CCOCC4)nc3)cc2)C(=O)N(C)[C@@H](CC(C)C)C(=O)O[C@H](C)C(=O)N(C)[C@@H](CC(C)C)C(=O)O[C@H](Cc2ccc(Cc3cnc(N4CCOCC4)nc3)cc2)C(=O)N(C)[C@@H](CC(C)C)C(=O)O[C@H](C)C(=O)N1C` [Example 3-178, (3S,6R,9S,12R,15S,18R,21S,24R)-3,9,15,21-tetraisobutyl-4,6,10,16,18,22-hexamethyl-12,24-bis(4-((2-morpholinopyrimidin-5-yl)methyl)benzyl)-1,7,13,19-tetraoxa-4,10,16,22-tetraazacyclotetracosan-2,5,8,11,14,17,20,23-octaone], for which the minimal effective concentration in assay [1] was 0.001 µM; in assay [2], 0.001 µM; in assay [3] (setting [4]), more than 100 µM. In addition, the DiMf/DiL4 in assay [2] came out at 1.
As for `CC(C)C[C@H]1C(=O)O[C@H](Cc2ccc(Cc3cccnc3C3CC3)cc2)C(=O)N(C)[C@@H](CC(C)C)C(=O)O[C@H](C)C(=O)N(C)[C@@H](CC(C)C)C(=O)O[C@H](Cc2ccc(Cc3cccnc3C3CC3)cc2)C(=O)N(C)[C@@H](CC(C)C)C(=O)O[C@H](C)C(=O)N1C` [Example 3-296, (3S,6R,9S,12R,15S,18R,21S,24R)-6,18-bis(4-((2-cyclopropylpyridin-3-yl)methyl)benzyl)-3,9,15,21-tetraisobutyl-4,10,12,16,22,24-hexamethyl-1,7,13,19-tetraoxa-4,10,16,22-tetraazacyclotetracosan-2,5,8,11,14,17,20,23-octaone], the minimal effective concentration in assay [1] is 0.03 µM; in assay [2] it was 0.0005 µM; in assay [3] (setting [6]), 1 to 3.3 µM; in assay [3] (setting [4]) it was 1.8 µM. In addition, the DiMf/DiL4 in assay [2] was determined as 60.
Take `CC(C)C[C@H]1C(=O)O[C@H](Cc2ccc(Cc3ccns3)cc2)C(=O)N(C)[C@@H](CC(C)C)C(=O)O[C@H](C)C(=O)N(C)[C@@H](CC(C)C)C(=O)O[C@H](Cc2ccc(Cc3ccns3)cc2)C(=O)N(C)[C@@H](CC(C)C)C(=O)O[C@H](C)C(=O)N1C` [Example 3-156, (3S,6R,9S,12R,15S,18R,21S,24R)-3,9,15,21-tetraisobutyl-6,18-bis(4-(isothiazol-5-ylmethyl)benzyl)-4,10,12,16,22,24-hexamethyl-1,7,13,19-tetraoxa-4,10,16,22-tetraazacyclotetracosan-2,5,8,11,14,17,20,23-octaone]: the minimal effective concentration in assay [1] came to 0.0005 µM; in assay [2], 0.0001 µM; in assay [3] (setting [4]) it was 5.6 µM. In addition, the DiMf/DiL4 in assay [2] is on record as 5.
